From US11701439B2, “DAZA chelators as ligands in liver imaging” (X-NUCLEAR DIAGNOSTICS GMBH, priority 2017, dated 2023)

Tests used:
[1] = physiological conditions; demetalation e.g. by apo-transferrin; cited from earlier work
[2] = Stability / storability of the ligands as labeling precursors; assay type: physicochemical
[3] = test system: embryonated ostrich egg; experiment: Administration in ostrich egg and PET/CT examination (in ovo test); conditions: in vivo in the incubated egg, approx. 10 MBq in PBS injected intravascularly
Description: The accumulation in the liver of the compounds according to the invention can be examined in a so-called ovo test, i.e. in vivo in an incubated ostrich egg. […] 2. Administration in Ostrich Egg and PET/CT Examination To carry out an intravascular injection in an embryonic egg, it is first necessary to find an […] blood vessel. This is done using a light-intensive […] lamp (Tempo No. 119, Brecker Ltd. & Co. KG, Ruethen, Germany or Powerlux […], Lyon Technologies Inc., Chula Vista, Calif., USA), with which the egg is illuminated through the eggshell in similar manner to a diaphanoscopy. After locating a large-caliber vessel, an approximately 2.5×5 cm rectangular piece is machined from the approximately 2 mm thick egg shell (Dremel® 3000, Dremel Europe-Bosch Powertools B.V., Breda, the Netherlands). Particular care must be taken to maintain the intactness of the inner membrane of the eggshell, which corresponds to the chorioallantoic membrane (CAM). After removing the eggshell lid-again using the […] lamp-the yolk vessel is punctured with a narrow 27G cannula and this is fixed to the eggshell with adhesive strips. The access thus created now allows both CT contrast media and radiopharmaceuticals to be injected via a short length of plastic tubing (Smiths MedicalTM 800/100/100 Smiths, Smiths Medical International Ltd, Ashford, Great Britain). […]

SMILES	stability of the 68Ga complex of the ligand [1]	stability of the ligand (storable as precursor for labeling with 68Ga or 64Cu) [2]	also measured
CCc1cccc(CC)c1NC(=O)CN(CC(=O)O)CC(=O)O [EHIDA]	do not form sufficiently stable ^68Ga complexes	–	–
CCOc1ccc(C[C@@H](CN(CCN(CC(=O)O)CC(=O)O)CC(=O)O)N(CC(=O)O)CC(=O)O)cc1 [EOB-DTPA]	do not form sufficiently stable ^68Ga complexes	–	–
CCOc1ccc(CNC2CN(Cc3ccc(OCC)cc3O)CCN(Cc3ccc(OCC)cc3O)C2)c(O)c1 [TEOHB-DAZA, tris-N,N′,N″(4-ethoxy-2-hydroxybenzyl)-1,4-diazepan-6-amine]	–	stable	–
COc1ccc(CNC2CN(Cc3ccc(OC)cc3O)CCN(Cc3ccc(OC)cc3O)C2)c(O)c1 [TMeOHB-DAZA, tris-N,N′,N″(4-methoxy-2-hydroxybenzyl)-1,4-diazepan-6-amine]	–	stable	–
CCOc1ccc(CNC2CN(Cc3ccc(OCC)cc3[O-])CCN(Cc3ccc(OCC)cc3[O-])C2)c([O-])c1.[68Ga+3] [^68Ga-[TEOHB-DAZA], ^68Ga[tris-N,N′,N″(4-ethoxy-2-hydroxybenzyl)-1,4-diazepan-6-amine]]	–	–	accumulation in the liver [3]: almost exclusive accumulation in the liver
